{
  "source": "patent EP1067939B1",
  "about": "“USE OF STEROIDAL ALKALOID DERIVATIVES AS INHIBITORS OF HEDGEHOG PROTEIN SIGNALING PATHWAYS” (The Johns Hopkins University, priority 1998, dated 1999)",
  "key": {"rat hepatoma cells": {"test_system": "rat hepatoma cells", "experiment": "Cholesterol Esterification Assay (esterification of plasma membrane cholesterol)", "assay_type": "cell-based", "from_the_text": "Table 1. […] Table 1. Effects of synthetic and plant-derived compounds on cholesterol homeostasis. […]"}, "Shh": {"molecular_target": "T1, Shh (Mus musculus, UniProt Q62226)", "T1 construct": "expressed in transfected cells; host or cells: HK293 cells, Ecdysone-Inducible Mammalian Expression System (Invitrogen)", "T1 sequence (Q62226 25-437)": "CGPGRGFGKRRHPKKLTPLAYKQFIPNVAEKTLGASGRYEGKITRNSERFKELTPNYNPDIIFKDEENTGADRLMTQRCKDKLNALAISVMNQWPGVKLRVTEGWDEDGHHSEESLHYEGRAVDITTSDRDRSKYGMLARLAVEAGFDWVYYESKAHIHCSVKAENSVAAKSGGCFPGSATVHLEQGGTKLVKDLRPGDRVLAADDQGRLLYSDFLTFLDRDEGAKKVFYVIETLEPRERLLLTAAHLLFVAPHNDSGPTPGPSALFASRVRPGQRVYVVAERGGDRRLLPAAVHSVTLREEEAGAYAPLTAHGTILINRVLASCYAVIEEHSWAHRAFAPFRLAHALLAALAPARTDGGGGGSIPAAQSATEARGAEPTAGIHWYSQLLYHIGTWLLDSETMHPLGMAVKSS", "experiment": "Shh autoprocessing in stably transfected HK293 cells (immunoblot)", "assay_type": "cell-based", "from_the_text": "To examine potential effects of these compounds on Shh processing we utilized HK293 cells cultured in lipid-depleted serum and carrying a stable integrated construct for expression of Shh under ecdysone-inducible control (47). Shh protein expression in these cells can be induced by addition of muristerone A, an ecdysone analog.\n• 1. M. Hammerschmidt, A. Brook, A. P. McMahon, Trends Genet, 13, 14-21 (1997). • 2. C. Chiang, et al., Nature, 383,407-413 (1996). • 3. Y. Tanabe, T. M. Jessell, Science 274, 1115-1123 (1996). • 4. T. P. Yamaguchi, Curr. Opin. Genet. Dev. 7, 513-518 (1997). • 5. N. Shubin, C. Tabin, S. Carroll, Nature 388, 639-648 (1997). • 6. A. E. Oro, et al., Science 276, 817-821 (1997). • 7. M. M. Cohen, K. K. Sulik, J. Craniofac. Genet. Deve. Biol. 12, 196-244 (1992). • 8. E. Belloni, et al., Nature Genet. 14, 353-356 (1996). • 9. E. Roessler, et al., Nature Genet. 14, 357-360 (1996). • 10. J. A. Porter, et al., Nature 374, 363-366 (1995). • 11. J. A. Porter, K. E. Young, P. A. Beacy, Science 274, 255-259 (1996b). • 12. J. J. Lee, et al., Science 266, 1528-1537 (1994). • 13. J. A. Porter, et al., Cell 86, 21-34 (1996a). • 14. C. Roux, Arch. Franc. Pediatr. 21, 451-464 (1964). • 15. C. Roux, C. R. Soc. Biol. 160, 1353-1357 (1966). • 16. D. B. Dehart, L. Lanoue, G. S. Tinit, K. K. Sulik, Am J. Med. Genet. 68, 328-337 (1997). • 17. M. Kraml, J. F. Bagli, D. Dvornik, Biochem. and Biophysical Res. Com. 15, 455-457 (1964). • 18. J. Avigan, D. Steinberg, H. E. Vroman, M. J. Thompson, E. Mosettig, J. Biol. Chem 235, 3123-3126 (1960). • 19. R. B. Clayton, A. N. Nelson, I. D. Frantz Jr., J. Lipid Res. 4, 166-178 (1963). • 20. J. Aufenanger, J. Pill, K. Stegmeier, F. H. Schmidt, Horm. Metabol. Res. 17, 612-613 (1986). • 21. […] G. Popjak, A. Meenean, E. J. Parish, W. D. Nes, J. Biol. Chem 264,6230-6238 (1989). • 23. H. Yoshikawa, Brain Deve. 13, 115-120 (1991). • 24. R. I. Kelley, et al., Am. J. Of Med. Gen. 66, 478-484 (1996). • 25. G. S. Tint, et al., New England Journal of Medicine 330, 107-113 (1994). • 26. T.E. Willnow, et al., Proc. Natl. Acad. Sci USA 93, 8460-8464 (1996). • 27. S. Stefansson, D. A. Chappell, K. M. Argraves, D. K. Strickland, W. S. Argraves, J. Biol. Chem. 270, 19417-19421 (1995). • 28. W. Binns, L. F. James, J. L. Shupe, G. Everett, Am. J. Vet. Res. 24, 1164-1174 (1963). • 29. R. F. Keeler, W. Binns, Teratology 1, 5-10 (1968). • 30. P. A. Beachy, et al., CSH Symp. Quant. Biol. 62, in press (1997). • 31. E. D. Carstea, et al., Science 277, 228-231 (1997). • 32. S. K. Loftus, et al., Science 277, 232-235 […]. • 33. L. V. Goodrich, L. Milenkovic, K. M. Higgins, M. P. Scott, Science 277, 1109-1113 (1997). • 34. H. Kumagai, K. T. Chun, R. D. Simoni, J. Biol. Chem. 270, 19107-19113 (1995). • 35. G. Gil, J. R. Faust, D. J. Chin, J. L. Goldstien, M. S. Brown, Cell 41, 249-258 (1985). • 36. X. Hua, A. Nohturfft, J. L. Goldstein, M. S. Brown, Cell 87, 415-426 (1996). • 37. M. S. Brown, J. L. Goldstein, Cell 89, 331-340 (1997). • 38. M. M. Bryden, C. Perry, R. F. Keeler, Teratology 8, 18-28 (1973). • 39. M. L. Omnell, F. R. P. Sim, R. F. Keeler, L. C. Harne, K. W. Brown, Teratology 42, 105-119 (1990). • 40. Fertile chick eggs (white leghorn) were placed in a humidified incubator at 37.5° C in a rotating tray for 14 hours. […] The window was taped and the eggs incubated for an additional 4 days. The embryos were dissected in phosphate buffered saline (PBS, pH 7.2)."}, "His6Hh-C": {"molecular_target": "T2, His6Hh-C (Drosophila melanogaster, UniProt Q02936)", "T2 construct": "made in house", "T2 sequence (Q02936 252-471)": "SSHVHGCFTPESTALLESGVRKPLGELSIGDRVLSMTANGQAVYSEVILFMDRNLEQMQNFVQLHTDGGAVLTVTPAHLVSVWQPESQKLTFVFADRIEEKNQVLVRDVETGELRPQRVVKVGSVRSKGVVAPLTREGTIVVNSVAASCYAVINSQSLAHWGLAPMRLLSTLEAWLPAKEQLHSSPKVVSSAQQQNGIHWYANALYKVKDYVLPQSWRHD", "experiment": "In vitro Hh autoprocessing reaction with purified components", "assay_type": "biochemical", "conditions": "for interference with cholesterol-stimulated autoprocessing: 12 µM cholesterol, 3 hours at 30° C, up to 27-fold excess to cholesterol; for His6Hh-C autocleavage reaction in the presence of compound without sterol: absence of cholesterol, up to 324 µM"}, "Shh-N": {"test_system": "Shh-N", "experiment": "Intermediate neural plate explant response to exogenous Shh-N protein", "assay_type": "cell-based, chick"}, "BMP7": {"test_system": "BMP7", "experiment": "Neural plate explant response to BMP7 (migratory HNK-1 positive cells)", "assay_type": "cell-based, chick", "conditions": "100 ng/ml BMP7, ventral neural plate explants"}, "[1]": {"conditions": "read-out: Percent Inhibition (incorporation of label into cholesteryl ester*) ^3H-Cholesterol"}, "[2]": {"conditions": "read-out: Percent Inhibition (incorporation of label into cholesteryl ester*) ^14C-Oleic Acid"}},
  "note": "Like-named read-outs stand apart in the source and are kept apart here.",
  "data": [
    {"smiles": "C[C@H]1CC[C@]2(NC1)O[C@H]1C[C@H]3[C@@H]4CC[C@H]5C[C@@H](O)CC[C@]5(C)[C@H]4CC[C@]3(C)[C@H]1[C@@H]2C", "note": "[Tomatidine, tomatidine]", "values": [
      {"measurement": "inhibition at 2.5 µM", "setting": "rat hepatoma cells; 2.5 µM, read-out: Percent Inhibition (incorporation of label into cholesteryl ester*) ^3H-Cholesterol", "result": 31, "unit": "%"},
      {"measurement": "inhibition at 2.5 µM", "setting": "rat hepatoma cells; 2.5 µM, read-out: Percent Inhibition (incorporation of label into cholesteryl ester*) ^14C-Oleic Acid", "result": 30, "unit": "%"},
      {"measurement": "inhibition at 5 µM", "setting": "rat hepatoma cells; 5.0 µM, read-out: Percent Inhibition (incorporation of label into cholesteryl ester*) ^3H-Cholesterol", "result": 33, "unit": "%"},
      {"measurement": "inhibition at 5 µM", "setting": "rat hepatoma cells; 5.0 µM, read-out: Percent Inhibition (incorporation of label into cholesteryl ester*) ^14C-Oleic Acid", "result": 64, "unit": "%"},
      {"measurement": "inhibition at 10 µM", "setting": "rat hepatoma cells; 10 µM, read-out: Percent Inhibition (incorporation of label into cholesteryl ester*) ^3H-Cholesterol", "result": 39, "unit": "%"},
      {"measurement": "inhibition at 10 µM", "setting": "rat hepatoma cells; 10 µM, read-out: Percent Inhibition (incorporation of label into cholesteryl ester*) ^14C-Oleic Acid", "result": 52, "unit": "%"},
      {"measurement": "Shh-Np production and accumulation of unprocessed precursor", "setting": "Shh; added during the 24-hour induction period, doses up to 5-fold higher than those required to completely inhibit Shh signaling", "result": "did not diminish Shh-Np production nor induce accumulation of unprocessed precursor"},
      {"measurement": "slower migrating Shh species, signal sequence cleavage", "setting": "Shh; species ∼ 1.9 kD larger, lanes 10, 11", "result": "minor inhibition of signal sequence cleavage"},
      {"measurement": "interference with cholesterol-stimulated autoprocessing", "setting": "His6Hh-C", "result": "does not interfere with autoprocessing"},
      {"measurement": "His6Hh-C autocleavage reaction in the presence of compound without sterol", "setting": "His6Hh-C", "result": "does not proceed"},
      {"measurement": "concentrations producing partial inhibition relative to those required for complete inhibition by jervine and cyclopamine", "setting": "Shh-N", "result": 100200, "unit": "fold"},
      {"measurement": "concentration that inhibits the repression of Pax7 expression by 2 nM Shh-N", "setting": "Shh-N; 2 nM Shh-N, 20 hours", "result": "> 50", "unit": "µM"},
      {"measurement": "effect on HNF3β and Isl-1 induction", "setting": "Shh-N; 50 µM, 25 nM Shh-N", "result": "markedly reduces HNF3β induction and enhances Isl1-1 induction"},
      {"measurement": "effect on HNF3β and Isl-1 expression", "setting": "Shh-N; Tomatidine at 25 nM (so in the source), 25 nM Shh-N", "result": "slight inhibitory effect"},
      {"measurement": "Induction of migratory HNK-1 positive cells by BMP7", "setting": "BMP7; 50 µM", "result": "not inhibited"}
    ]},
    {"smiles": "CC1=C2C[C@H]3[C@@H](CC=C4C[C@@H](O)CC[C@@]43C)[C@@H]2CC[C@]12O[C@@H]1C[C@H](C)CN[C@H]1[C@H]2C", "note": "[Cyclopamine, cyclopamine]", "values": [
      {"measurement": "inhibition at 2.5 µM", "setting": "rat hepatoma cells; [1]", "result": 48, "unit": "%"},
      {"measurement": "inhibition at 5 µM", "setting": "rat hepatoma cells; [1]", "result": 67, "unit": "%"},
      {"measurement": "inhibition at 10 µM", "setting": "rat hepatoma cells; [1]", "result": 79, "unit": "%"},
      {"measurement": "inhibition at 2.5 µM", "setting": "rat hepatoma cells; [2]", "result": 45, "unit": "%"},
      {"measurement": "inhibition at 5 µM", "setting": "rat hepatoma cells; [2]", "result": 62, "unit": "%"},
      {"measurement": "inhibition at 10 µM", "setting": "rat hepatoma cells; [2]", "result": 74, "unit": "%"},
      {"measurement": "Shh-Np production and accumulation of unprocessed precursor", "setting": "Shh", "result": "did not diminish Shh-Np production nor induce accumulation of unprocessed precursor"},
      {"measurement": "interference with cholesterol-stimulated autoprocessing", "setting": "His6Hh-C", "result": "does not interfere with autoprocessing"},
      {"measurement": "His6Hh-C autocleavage reaction in the presence of compound without sterol", "setting": "His6Hh-C", "result": "does not proceed"},
      {"measurement": "concentration that inhibits the repression of Pax7 expression by 2 nM Shh-N", "setting": "Shh-N", "result": 0.0625, "unit": "µM"},
      {"measurement": "doses at which HNF3β and Isl-1 induction are completely blocked", "setting": "Shh-N", "result": 0.25, "unit": "µM"},
      {"measurement": "intermediate levels at which induction of HNF3β is blocked while induction of Isl-1 is maintained or expanded", "setting": "Shh-N", "result": 0.125, "unit": "µM"},
      {"measurement": "Induction of migratory HNK-1 positive cells by BMP7", "setting": "BMP7; 10 µM", "result": "not inhibited"}
    ]}
  ]
}
